As a reminder, the IC50 is the concentration that gives 50% inhibition. By Kd is commonly meant the constant that tells how readily two partners part at equilibrium.

The results in this text go back to ChEMBL document CHEMBL1144029, “Characterization of type II ligands in CYP2C9 and CYP3A4” (J Med Chem, 2008).

Test [1] concerns the target T1, Cytochrome P450 2C9 (Homo sapiens, UniProt P11712). Briefly: Inhibition of human recombinant CYP2C9 expressed in Saccharomyces cerevisiae by fluorescence assay. The format is ADME.
The target in test [2] is T2, Cytochrome P450 3A4 (Homo sapiens, UniProt P08684). Briefly: Inhibition of human recombinant CYP3A4 expressed in Saccharomyces cerevisiae by fluorescence assay. It counts as ADME.
T2 sequence (P08684 whole entry): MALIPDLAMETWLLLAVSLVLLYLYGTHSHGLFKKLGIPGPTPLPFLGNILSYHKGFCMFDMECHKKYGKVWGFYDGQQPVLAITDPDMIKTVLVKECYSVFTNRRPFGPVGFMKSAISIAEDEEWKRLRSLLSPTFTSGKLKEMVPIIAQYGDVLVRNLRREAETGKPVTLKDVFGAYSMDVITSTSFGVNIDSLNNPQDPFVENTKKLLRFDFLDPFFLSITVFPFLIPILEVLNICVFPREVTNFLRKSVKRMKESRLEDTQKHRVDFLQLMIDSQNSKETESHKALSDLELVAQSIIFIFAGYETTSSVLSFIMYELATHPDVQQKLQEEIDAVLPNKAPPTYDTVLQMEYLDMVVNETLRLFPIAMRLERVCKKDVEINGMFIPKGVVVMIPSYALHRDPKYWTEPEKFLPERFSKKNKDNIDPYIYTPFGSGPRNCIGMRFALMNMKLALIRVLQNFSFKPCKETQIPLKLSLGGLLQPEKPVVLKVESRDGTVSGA
The target of test [3] is T2, Cytochrome P450 3A4. Briefly: Binding affinity to purified human recombinant CYP3A4 expressed in Escherichia coli assessed as spectral dissociation constant. The format is ADME.
The species named for test [4] is Homo sapiens. Briefly: Selectivity for human recombinant CYP2C9 over human recombinant CYP3A4.
The target of test [5] is T1, Cytochrome P450 2C9. As to the kind of experiment: Binding affinity to purified human recombinant CYP2C9 expressed in Escherichia coli assessed as spectral dissociation constant. It counts as ADME.

Molecules are shown by their SMILES. Some results are limits rather than exact numbers.

T1 sequence (P11712 whole entry): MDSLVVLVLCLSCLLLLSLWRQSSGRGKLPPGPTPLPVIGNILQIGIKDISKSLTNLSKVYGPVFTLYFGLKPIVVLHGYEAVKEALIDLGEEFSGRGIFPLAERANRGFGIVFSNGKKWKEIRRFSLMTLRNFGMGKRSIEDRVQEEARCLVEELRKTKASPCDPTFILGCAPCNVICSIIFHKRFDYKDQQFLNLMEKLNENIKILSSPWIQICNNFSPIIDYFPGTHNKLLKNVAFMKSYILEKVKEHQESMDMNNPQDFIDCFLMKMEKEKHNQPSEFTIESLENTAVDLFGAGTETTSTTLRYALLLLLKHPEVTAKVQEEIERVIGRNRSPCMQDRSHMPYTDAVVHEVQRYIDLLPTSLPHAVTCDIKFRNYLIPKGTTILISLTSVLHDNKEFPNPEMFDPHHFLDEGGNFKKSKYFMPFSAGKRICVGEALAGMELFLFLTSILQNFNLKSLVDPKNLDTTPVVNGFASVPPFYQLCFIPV

For `CCOC(=O)C(Cc1ccc(Cl)cc1Cl)c1ccno1` (centres undefined), the values for the IC50 in test [1] and in test [2] were 11 µM and 12 µM, respectively.

On to `Cc1cnc(CNc2cc(-c3ccccc3)nc(-c3ccncc3)n2)nc1`, for which the values for the IC50 in test [1] and in test [2] were 4.8 µM and 0.071 µM, respectively.

In the case of `Clc1ccc(C2(Cn3cncn3)CC(Br)CO2)c(Cl)c1` (centres undefined) [BROMUCONAZOLE], the figures for the IC50 in test [1] and in test [2] were 8.1 µM and 0.13 µM, respectively.

In the case of `Cc1cnc(CNc2cc(-c3ccccc3)nc(-c3ccccn3)n2)nc1`, the IC50 is above 50 µM in test [1] and above 40 µM in test [2].

Turning to `CCC1COC(Cn2cncn2)(c2ccc(Cl)cc2Cl)O1` (centres undefined) [ETACONAZOLE], the values for the IC50 in test [1] and in test [2] were above 50 µM and 0.21 µM, respectively. The Kd in test [3] worked out at 0.21 µM.

As for `COc1ccc(-c2cc(CNS(=O)(=O)c3ccccc3)on2)cc1`, the IC50 in test [1] came out at 39 µM; in test [2], 33 µM.

As to `CCOc1ccc(NC(=O)c2ccc(-n3cnnn3)cc2)cc1`, the IC50 is above 30 µM in test [1] and 34 µM in test [2].

For the molecule `COC(=O)[C@H](Cc1cnc[nH]1)NCc1ccccc1`, the IC50 in test [1] turned out to be 20 µM; in test [2], 1.5 µM.

For `Brc1ccc(-n2c(SCc3ccccc3)nnc2-c2ccncc2)cc1`, the half-inhibitory concentration (IC50) in test [1] amounted to 4.3 µM; in test [2], 1.3 µM.

Turning to `CCn1c(SCc2ccc(OC)cc2)nnc1-c1ccncc1`, the IC50 in test [1] was above 50 µM; in test [2], 28 µM.

`O[C@](Cn1cccn1)(c1ccc(F)cc1F)n1cncn1`: the half-maximal inhibitory concentration (IC50) in test [1] was above 50 µM; in test [2], 44 µM.

Regarding `O=C(Nc1ccccc1)OCc1cn(-c2ccc(Cl)cc2)nn1`, in test [2], the IC50 was above 20 µM.

With `Clc1ccc(OC(Cn2ccnc2)c2ccc(Cl)cc2Cl)c(Cl)c1` (centres undefined), the results for the IC50 in test [1] and in test [2] were 10 µM and 0.06 µM, respectively.

Regarding `CS(=O)(=O)c1ccc(Cn2cc(-c3ccncc3)cn2)cc1`, the Selectivity ratio in test [4] amounted to 20. In addition, the IC50 came to 1.3 µM in test [1] and 26 µM in test [2].

In the case of `CS(=O)(=O)Cc1cc(N2CCCC2)nc(-c2ccncc2)n1`, the IC50 in test [1] is above 50 µM; in test [2], 1.3 µM.

Consider `Cc1cc(C(C)(C)NC(=O)C(Br)C(C)(C)C)cc(C)n1` (centres undefined), for which the IC50 in test [1] is above 50 µM; in test [2], 13 µM.

With `CS(=O)(=O)OCC1COC(Cn2cncn2)(c2ccc(Cl)cc2Cl)O1` (centres undefined), the IC50 in test [1] is above 50 µM; in test [2], 7.7 µM. Also, the Kd in test [3] was 3.5 µM.

Consider `Clc1ccc(Cn2cc(-c3ccncc3)cn2)c(Cl)c1`, for which the concentration for half-maximal inhibition (IC50) in test [1] was determined as 0.5 µM; in test [2] it was 0.23 µM. Further, the Kd in test [5] amounted to 3.6 µM; in test [3], 0.38 µM.

As for `CS(=O)(=O)Cc1cc(N2CCCC2)nc(-c2ccccc2)n1`, the IC50 in test [1] was above 50 µM; in test [2] it was above 40 µM.

`Cc1cnc(CNc2cc(-c3ccccc3)nc(-c3cccnc3)n2)nc1`: the IC50 in test [1] amounted to 21 µM; in test [2], 9.6 µM.
